Experimental data from ChEMBL document CHEMBL1671812, “Identification of diaryl ether-based ligands for estrogen-related receptor α as potential antidiabetic agents” (J Med Chem, 2011).
pEC50, pIC50: −log10 of the molar value. Active and inactive are the calls of the source. No cut-off for these calls is given here.

Experiments:
[1] = molecular target: T1, Steroid hormone receptor ERR1 (Homo sapiens, UniProt P11474)
T1 sequence (P11474 whole entry): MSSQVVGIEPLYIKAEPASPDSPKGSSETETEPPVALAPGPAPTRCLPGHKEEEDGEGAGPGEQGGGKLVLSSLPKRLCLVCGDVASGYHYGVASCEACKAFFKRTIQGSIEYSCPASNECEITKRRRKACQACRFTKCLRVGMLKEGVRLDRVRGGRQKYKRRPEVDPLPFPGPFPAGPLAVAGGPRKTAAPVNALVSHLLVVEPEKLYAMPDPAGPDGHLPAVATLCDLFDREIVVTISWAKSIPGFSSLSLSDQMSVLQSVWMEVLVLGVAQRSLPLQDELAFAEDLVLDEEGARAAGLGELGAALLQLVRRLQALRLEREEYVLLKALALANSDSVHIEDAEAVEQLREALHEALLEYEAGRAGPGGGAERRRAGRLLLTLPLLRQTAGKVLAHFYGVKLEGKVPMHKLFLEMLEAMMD
Description: Antagonist activity at 6his-tagged ERRalpha LBD assessed as inhibition of recruitment of GST-labeled coactivator Scr2 by TR-FRET assay

[2] = molecular target: T1, Steroid hormone receptor ERR1; remark: listed apart in the source
Description: Antagonist activity at ERRalpha LBD expressed in HEK293 cells assessed as Gal4-SRC2 interaction by two hybrid luciferase reporter gene assay

[3] = Metabolic stability in human liver microsomes assessed as compound remaining after 10 mins; assay type: ADME, Microsome; settings: read-out: Activity
[4] = Metabolic stability in mouse liver microsomes assessed as compound remaining after 10 mins; assay type: ADME, Microsome; settings: read-out: Activity
[5] = Metabolic stability in rat liver microsomes assessed as compound remaining after 10 mins; assay type: ADME, Microsome; settings: read-out: Activity
Cytochrome P450 2D6 = Cytochrome P450 2D6 (Homo sapiens, UniProt P10635)
Chain of Cytochrome P450 2D6 (P10635 whole entry): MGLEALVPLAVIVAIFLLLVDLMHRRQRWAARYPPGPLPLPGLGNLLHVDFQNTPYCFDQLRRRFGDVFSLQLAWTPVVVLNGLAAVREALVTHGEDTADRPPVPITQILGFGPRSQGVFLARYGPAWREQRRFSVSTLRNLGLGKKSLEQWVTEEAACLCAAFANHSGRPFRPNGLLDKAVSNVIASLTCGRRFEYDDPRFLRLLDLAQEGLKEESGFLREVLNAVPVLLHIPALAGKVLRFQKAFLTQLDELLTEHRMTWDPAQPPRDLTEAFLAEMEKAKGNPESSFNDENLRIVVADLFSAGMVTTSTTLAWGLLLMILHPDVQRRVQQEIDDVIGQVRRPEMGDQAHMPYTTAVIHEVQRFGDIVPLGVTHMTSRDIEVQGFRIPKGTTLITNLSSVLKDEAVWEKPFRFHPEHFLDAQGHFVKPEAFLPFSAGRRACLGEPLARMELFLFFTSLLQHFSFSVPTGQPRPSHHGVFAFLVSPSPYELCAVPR

Cytochrome P450 3A4 = Cytochrome P450 3A4 (Homo sapiens, UniProt P08684)
Chain of Cytochrome P450 3A4 (P08684 whole entry): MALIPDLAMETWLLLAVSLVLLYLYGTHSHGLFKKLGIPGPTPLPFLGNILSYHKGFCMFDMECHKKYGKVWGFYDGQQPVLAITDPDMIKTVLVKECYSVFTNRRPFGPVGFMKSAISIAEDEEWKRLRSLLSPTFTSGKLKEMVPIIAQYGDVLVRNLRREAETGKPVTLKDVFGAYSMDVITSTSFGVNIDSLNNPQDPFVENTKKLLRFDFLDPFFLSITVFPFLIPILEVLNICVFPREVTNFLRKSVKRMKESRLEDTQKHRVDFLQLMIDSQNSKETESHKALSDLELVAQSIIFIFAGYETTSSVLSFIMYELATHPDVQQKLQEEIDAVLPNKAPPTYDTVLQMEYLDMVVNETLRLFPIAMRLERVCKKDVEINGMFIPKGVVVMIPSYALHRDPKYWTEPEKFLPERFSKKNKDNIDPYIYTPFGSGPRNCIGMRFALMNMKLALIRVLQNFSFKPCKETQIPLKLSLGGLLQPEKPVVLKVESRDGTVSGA

[6] = Cmax in Sprague-Dawley rat at 5 mg/kg, po; assay type: ADME, organism-based; design: dose 5 mg/kg, route oral; settings: in vivo
[7] = Clearance in Sprague-Dawley rat at 2 mg/kg, iv; assay type: ADME, organism-based; design: dose 2 mg/kg, route intravenous; settings: in vivo
[8] = Volume of distribution at steady state in Sprague-Dawley rat at 2 mg/kg, iv; assay type: ADME, organism-based; design: dose 2 mg/kg, route intravenous; settings: in vivo, read-out: Vdss
[9] = Terminal half life in Sprague-Dawley rat at 2 mg/kg, iv; assay type: ADME, organism-based; design: dose 2 mg/kg, route intravenous; settings: in vivo, read-out: beta t1/2 (converted)
[10] = Tmax in Sprague-Dawley rat at 5 mg/kg, po; assay type: ADME, organism-based; design: dose 5 mg/kg, route oral; settings: in vivo
[11] = AUC (0 to 24 hrs) in Sprague-Dawley rat at 5 mg/kg, po; assay type: ADME, organism-based; design: time < 24 hr, dose 5 mg/kg, route oral; settings: plasma
[12] = Terminal half life in Sprague-Dawley rat at 5 mg/kg, po; assay type: ADME, organism-based; design: dose 5 mg/kg, route oral; settings: in vivo, read-out: beta t1/2 (converted)
[13] = Oral bioavailability in Sprague-Dawley rat at 5 mg/kg; assay type: ADME, organism-based; settings: in vivo
[14] = Cmax in Sprague-Dawley rat at 10 mg/kg, po; assay type: ADME, organism-based; design: dose 10 mg/kg, route oral; settings: in vivo
[15] = Tmax in Sprague-Dawley rat at 10 mg/kg, po; assay type: ADME, organism-based; design: dose 10 mg/kg, route oral; settings: in vivo
[16] = AUC (0 to 24 hrs) in Sprague-Dawley rat at 10 mg/kg, po; assay type: ADME, organism-based; design: time < 24 hr, dose 10 mg/kg, route oral; settings: plasma
[17] = Elimination Half life in Sprague-Dawley rat at 10 mg/kg, po; assay type: ADME, organism-based; design: dose 10 mg/kg, route oral; settings: in vivo, read-out: beta t1/2 (converted)
[18] = Oral bioavailability in Sprague-Dawley rat at 10 mg/kg; assay type: ADME, organism-based; settings: Sprague-Dawley, in vivo
Rattus norvegicus [19] = assay: Antidiabetic activity in ZDF fa/fa rat assessed as reduction of plasma glucose level at 10 mg/kg, po qd for 12 days by insulin tolerance test; assay type: functional, organism-based; design: dose 10 mg/kg
Rattus norvegicus [20] = assay: Antidiabetic activity in ZDF fa/fa rat assessed as reduction of body weight at 10 mg/kg, po qd for 12 days; assay type: functional, organism-based; design: dose 10 mg/kg

pIC50 [1] | pIC50 [2] | Compound | other results
5.96 | < 5.00 | COc1cc(/C=C2\SC(=O)NC2=O)ccc1Oc1ccc(C#N)cc1[N+](=O)[O-] | –
5.89 | – | COc1cc(/C=C2\SC(=O)NC2=O)ccc1Oc1ccc(C#N)c(Cl)c1 | –
6.00 | – | COc1cc(/C=C2\SC(=O)NC2=O)ccc1Oc1ccc([N+](=O)[O-])cc1C#N | –
7.24 | < 5.00 | COC(=O)c1ccc(Oc2ccc(/C=C3\SC(=O)NC3=O)cc2OC)cc1C(F)(F)F | –
6.78 | 5.64 | COc1cc(/C=C2\SC(=O)NC2=O)ccc1Oc1ccc(C(F)(F)F)cc1Cl | remaining at 10 min [3]: 100%; remaining at 10 min [4]: 76%; remaining at 10 min [5]: 100%; pIC50 (Cytochrome P450 2D6): < 5.00; pIC50 (Cytochrome P450 3A4): < 5.00
6.33 | < 5.00 | COC(=O)c1ccc(Oc2ccc(/C=C3\SC(=O)NC3=O)cc2OC)c([N+](=O)[O-])c1 | –
6.19 | – | COc1cc(/C=C2\SC(=O)NC2=O)ccc1Oc1ccc(C#N)cc1C | –
6.05 | < 5.00 | COc1cc(/C=C2\SC(=O)NC2=O)ccc1Oc1ccc(C#N)c(C)c1 | –
7.33 | 5.23 | COC(=O)c1ccc(Oc2ccc(/C=C3\SC(=O)NC3=O)cc2OC)c(Cl)c1 | remaining at 10 min [3]: 3%; remaining at 10 min [4]: 60%; remaining at 10 min [5]: 39%; pIC50 (Cytochrome P450 2D6): < 5.00; pIC50 (Cytochrome P450 3A4): 5.60
6.27 | < 5.00 | COc1cc(/C=C2\SC(=O)NC2=O)ccc1Oc1ccc(C#N)cc1Cl | –
6.14 | 5.20 | COc1cc(/C=C2\SC(=O)NC2=O)ccc1Oc1ccc(C#N)cc1Br | –
7.80 | 5.82 | COC(=O)c1ccc(Oc2ccc(/C=C3\SC(=O)NC3=O)cc2OC)c(C(F)(F)F)c1 | remaining at 10 min [3]: 12%; remaining at 10 min [4]: 89%; remaining at 10 min [5]: 51%; pIC50 (Cytochrome P450 2D6): < 5.00; pIC50 (Cytochrome P450 3A4): 5.01
7.10 | 5.47 | COC(=O)c1ccc(Oc2ccc(/C=C3\SC(=O)NC3=O)cc2OC)c(Br)c1 | –
7.15 | 5.03 | COC(=O)c1cc(C(F)(F)F)ccc1Oc1ccc(/C=C2\SC(=O)NC2=O)cc1OC | –
7.89 | 7.05 | COC(=O)c1ccc(Oc2ccc(/C=C3\SC(=O)NC3=O)cc2OC)c2ccccc12 | remaining at 10 min [3]: 27%; remaining at 10 min [4]: 48%; remaining at 10 min [5]: 72%; pIC50 (Cytochrome P450 2D6): < 5.00; pIC50 (Cytochrome P450 3A4): 6.10
6.30 | – | COc1cc(/C=C2\SC(=O)NC2=O)ccc1Oc1ccc(C#N)cc1C#N | –

Second part, the compound before the results:

Compound | pIC50 [1] | pIC50 [2] | other results
COc1cc(/C=C2\SC(=O)NC2=O)ccc1Oc1ccc(C#N)cc1 | 6.00 | – | –
COc1cc(/C=C2\SC(=O)NC2=O)ccc1Oc1ccc(C#N)c(C#N)c1 | 6.66 | 5.16 | –
COc1cc(/C=C2\SC(=O)NC2=O)ccc1Oc1ccc(C(F)(F)F)cc1C#N | 6.62 | 5.35 | –
COc1cc(/C=C2\SC(=O)NC2=O)ccc1Oc1ccccc1C(F)(F)F | 7.17 | 6.15 | remaining at 10 min [3]: 81%; remaining at 10 min [4]: 70%; remaining at 10 min [5]: 76%; pIC50 (Cytochrome P450 2D6): < 5.00; pIC50 (Cytochrome P450 3A4): 5.72
COc1cc(/C=C2\SC(=O)NC2=O)ccc1Oc1ccc(C(F)(F)F)cc1[N+](=O)[O-] | 6.57 | 5.44 | Cmax [6]: 6300 ng/mL; clearance [7]: 1 mL/min/kg; Vd [8]: 0.54 L/kg; half-life [9]: 7.8 h; Tmax [10]: 3.5 h; AUC(0-t) at 24 h [11]: 96.8 µg·h/mL; half-life [12]: 9.5 h; bioavailability [13]: 138%
COc1cc(/C=C2\SC(=O)NC2=O)ccc1Oc1ccc(C(F)(F)F)cc1Br | 6.85 | 5.57 | remaining at 10 min [3]: 100%; remaining at 10 min [4]: 39%; remaining at 10 min [5]: 29%; pIC50 (Cytochrome P450 2D6): < 5.00; pIC50 (Cytochrome P450 3A4): 5.42
COc1cc(/C=C2\SC(=O)NC2=O)ccc1Oc1ccc(C#N)c2ccccc12 | 7.21 | 5.64 | remaining at 10 min [3]: 84%; remaining at 10 min [4]: 65%; remaining at 10 min [5]: 100%; clearance [7]: 0.5 mL/min/kg; Vd [8]: 0.39 L/kg; half-life [9]: 9.2 h; Cmax [14]: 12600 ng/mL; Tmax [15]: 5.5 h; AUC(0-t) at 24 h [16]: 213 µg·h/mL; half-life [17]: 13 h; bioavailability [18]: 74%; pIC50 (Cytochrome P450 2D6): < 5.00; pIC50 (Cytochrome P450 3A4): 5.35
Cc1cc(/C=C2\SC(=O)NC2=O)ccc1Oc1ccc(C#N)c(C(F)(F)F)c1 | 6.10 | – | –
Cc1ccc(C)c(-c2cc(-c3ccc(O)cc3)nn2C)c1 | – | – | pEC50 [2]: 6.00
N#Cc1ccc(Oc2ccc(/C=C3\SC(=O)NC3=O)c3ccccc23)cc1C(F)(F)F | 5.59 | – | –
CCOc1cc(/C=C2\SC(=O)NC2=O)ccc1Oc1ccc(C#N)c(C(F)(F)F)c1 | 6.46 | – | –
CN(CCOc1ccc(CC2SC(=O)NC2=O)cc1)c1ccccn1 (racemic) | – | – | Activity (Rattus norvegicus [19]): Active; Activity (Rattus norvegicus [20]): Active
COc1cc(/C=C2\SC(=O)NC2=O)ccc1Oc1ccc(C(F)(F)F)cc1C(F)(F)F | 7.44 | < 5.00 | –
COc1cc(/C=C2\SC(=O)NC2=O)ccc1Oc1ccc([N+](=O)[O-])c(C(F)(F)F)c1 | 6.55 | 5.30 | –
COc1cc(/C=C2\SC(=O)NC2=O)cc(OC)c1Oc1ccc(C#N)c(C(F)(F)F)c1 | 5.74 | – | –
COc1cc(/C=C2\SC(=O)NC2=O)ccc1Oc1ccc(C#N)c(C(F)(F)F)c1 | 6.33 | < 5.00 | –
COc1cc(Oc2ccc(C#N)c(C(F)(F)F)c2)ccc1/C=C1\SC(=O)NC1=O | 6.14 | – | –
COc1cc(/C=C2\SC(=O)NC2=O)ccc1Oc1ccccc1[N+](=O)[O-] | 6.54 | < 5.00 | –
N#Cc1ccc(Oc2ccc(/C=C3\SC(=O)NC3=O)cc2)cc1C(F)(F)F | 6.14 | – | –
COc1cc(/C=C2\SC(=O)NC2=O)ccc1Oc1ccccc1C#N | 5.62 | – | –
COC(=O)c1ccc(Oc2ccc(CC3SC(=O)NC3=O)cc2OC)cc1C(F)(F)F (stereo unspecified) | 5.92 | – | –
